# Measurements taken from patent publication US6992079B2, “Substituted 11-phenyl-dibenzazepine compounds useful for the treatment or prevention of diseases characterized by abnormal cell proliferation” (President Fellows of Harvard College, priority 1997, dated 2006).
# Like-named read-outs stand apart in the source and are kept apart here.
# How the values were obtained:
# Type in all cases: cell-based
# MDA-N = test: In-Vitro Testing SRB panel: Breast Cancer
# SW-620 = test: In-Vitro Testing SRB panel: Colon Cancer; conditions: SW-620
# NCI/ADR-RES = test: In-Vitro Testing SRB panel: Breast Cancer
# SNB-19 = test: In-Vitro Testing SRB panel: CNS Cancer; conditions: SNB-19
# SN12C = test: In-Vitro Testing SRB panel: Renal Cancer
# NCI-H226 = conditions: NCI-H226
# ROP-92 = test system: ROP-92
# K-562 = test: In-Vitro Testing SRB panel: Leukemia
# HT29 = test: In-Vitro Testing SRB panel: Colon Cancer
# [1] = Homo sapiens, read-out: LC50 (the source's name)
compound,measurement,setting,value
COc1cccc2c1C(c1ccccc1Cl)c1cc(Cl)ccc1N(C(=O)c1ccc([N+](=O)[O-])cc1)C2 (stereo not drawn) [Compound 31],TGI,MDA-N,>1.00E−04 Molar
same,GI50,MDA-N; Homo sapiens,1.97 µM
same,CC50,MDA-N; [1],> 100 µM
same,Percent Growth,MDA-N; log10 conc -4 Molar,22%
same,Percent Growth,MDA-N; log10 conc -5 Molar,33%
same,Percent Growth,MDA-N; log10 conc -6 Molar,57%
same,Percent Growth,MDA-N; log10 conc -7 Molar,90%
same,Percent Growth,MDA-N; log10 conc -8 Molar,96%
same,GI50,SW-620; Homo sapiens,2 µM
same,CC50,SW-620; [1],> 100 µM
same,TGI,SW-620,>1.00E−04 Molar
same,Percent Growth,SW-620; log10 conc -4 Molar,27%
same,Percent Growth,SW-620; log10 conc -5 Molar,34%
same,Percent Growth,SW-620; log10 conc -6 Molar,57%
same,Percent Growth,SW-620; log10 conc -7 Molar,94%
same,Percent Growth,SW-620; log10 conc -8 Molar,105%
same,TGI,NCI/ADR-RES,>1.00E−04 Molar
same,GI50,NCI/ADR-RES; Homo sapiens,3.88 µM
same,CC50,NCI/ADR-RES; [1],> 100 µM
same,Percent Growth,NCI/ADR-RES; log10 conc -4 Molar,12%
same,Percent Growth,NCI/ADR-RES; log10 conc -5 Molar,27%
same,Percent Growth,NCI/ADR-RES; log10 conc -6 Molar,84%
same,Percent Growth,NCI/ADR-RES; log10 conc -7 Molar,101%
same,Percent Growth,NCI/ADR-RES; log10 conc -8 Molar,95%
same,GI50,SNB-19; Homo sapiens,2.61 µM
same,CC50,SNB-19; [1],> 100 µM
same,TGI,SNB-19,5.66E−05 Molar
same,Percent Growth,SNB-19; log10 conc -4 Molar,−5%
same,Percent Growth,SNB-19; log10 conc -5 Molar,16%
same,Percent Growth,SNB-19; log10 conc -6 Molar,74%
same,Percent Growth,SNB-19; log10 conc -7 Molar,99%
same,Percent Growth,SNB-19; log10 conc -8 Molar,102%
same,TGI,SN12C,>1.00E−04 Molar
same,GI50,SN12C; Homo sapiens,6.93 µM
same,CC50,SN12C; [1],> 100 µM
same,Percent Growth,SN12C; log10 conc -4 Molar,30%
same,Percent Growth,SN12C; log10 conc -5 Molar,43%
same,Percent Growth,SN12C; log10 conc -6 Molar,85%
same,Percent Growth,SN12C; log10 conc -7 Molar,101%
same,Percent Growth,SN12C; log10 conc -8 Molar,94%
same,GI50,NCI-H226; Homo sapiens,3.67 µM
same,CC50,NCI-H226; [1],> 100 µM
same,TGI,NCI-H226,>1.00E−04 Molar
same,Percent Growth,NCI-H226; log10 conc -4 Molar,13%
same,Percent Growth,NCI-H226; log10 conc -5 Molar,34%
same,Percent Growth,NCI-H226; log10 conc -6 Molar,71%
same,Percent Growth,NCI-H226; log10 conc -7 Molar,90%
same,Percent Growth,NCI-H226; log10 conc -8 Molar,90%
same,GI50,ROP-92; Homo sapiens,5.53 µM
same,CC50,"ROP-92; Homo sapiens, ROP-92, read-out: LC50 (the source's name)",> 100 µM
same,TGI,ROP-92; ROP-92,>1.00E−04 Molar
same,Percent Growth,"ROP-92; ROP-92, log10 conc -4 Molar",27%
same,Percent Growth,"ROP-92; ROP-92, log10 conc -5 Molar",42%
same,Percent Growth,"ROP-92; ROP-92, log10 conc -6 Molar",74%
same,Percent Growth,"ROP-92; ROP-92, log10 conc -7 Molar",88%
same,Percent Growth,"ROP-92; ROP-92, log10 conc -8 Molar",89%
same,GI50,"K-562; Homo sapiens, K562",0.506 µM
same,CC50,"K-562; Homo sapiens, K562, K-562, read-out: LC50 (the source's name)",> 100 µM
same,TGI,K-562; K-562,>1.00E−04 Molar
same,Percent Growth,"K-562; K-562, log10 conc -4 Molar",15%
same,Percent Growth,"K-562; K-562, log10 conc -5 Molar",24%
same,Percent Growth,"K-562; K-562, log10 conc -6 Molar",39%
same,Percent Growth,"K-562; K-562, log10 conc -7 Molar",77%
same,Percent Growth,"K-562; K-562, log10 conc -8 Molar",93%
same,TGI,HT29; HI29,>1.00E−04 Molar
same,Percent Growth,"HT29; HI29, log10 conc -4 Molar",16%
same,Percent Growth,"HT29; HI29, log10 conc -5 Molar",26%
same,Percent Growth,"HT29; HI29, log10 conc -6 Molar",47%
same,Percent Growth,"HT29; HI29, log10 conc -7 Molar",91%
same,Percent Growth,"HT29; HI29, log10 conc -8 Molar",97%
same,GI50,"HT29; Homo sapiens, HT-29",0.866 µM
same,CC50,"HT29; Homo sapiens, HT-29, HI29, read-out: LC50 (the source's name)",> 100 µM
